Experimental data as given in PubChem BioAssay AID330 (DTP/NCI, 2004).
“And” between values parts separate entries of the source, which are not always exact repeats. Identical values can stand only once. Toxic doses and inconclusive results are not listed. Rule for the calls: active = survival T/C of 150% or more; inactive = T/C below 125% in these data.

Tested on: P388 leukemia ip, CD2F1 mice, survival T/C
Test: NCI In Vivo Anticancer Drug Screen. Data for tumor model P388 Leukemia (intraperitoneal) in CD2F1 (CDF1) mice
Conditions: endpoint: median survival time, higher = longer survival
Method in brief: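 Mice carrying the transplanted tumor received test compound or vehicle. Survival was recorded in each group, and the value is the treated-group measurement divided by that of the vehicle-treated control group.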

[1] = dose: 60.0 mg/kg/injection, schedule: Q01DX005 (ip), vehicle: saline with Tween-80
[2] = dose: 120.0 mg/kg/injection, schedule: Q01DX005 (ip), vehicle: saline with Tween-80
[3] = dose: 240.0 mg/kg/injection, schedule: Q01DX005 (ip), vehicle: saline with Tween-80

Measured: T/C

OCCN1CCN(CCCN2c3ccccc3Sc3ccc(C(F)(F)F)cc32)CC1
inactive: dose: 7.5 mg/kg/injection, schedule: Q04DX003 (ip), vehicle: saline 111 % of control | dose: 15.0 mg/kg/injection, schedule: Q04DX003 (ip), vehicle: saline 120 % of control | dose: 60.0 mg/kg/injection, schedule: Q04DX003 (ip), vehicle: saline 123 % of control

Cc1cc(C)cc(C(=O)NCc2ccc[n+]([O-])c2)c1
inactive: dose: 60.0 mg/kg/injection, schedule: Q01DX005 (ip), vehicle: saline 97 % of control | dose: 120.0 mg/kg/injection, schedule: Q01DX005 (ip), vehicle: saline 94 % of control

CC1OC(=O)/C(=C\N(C)C)C1=O (stereo not given)
inactive: dose: 50.0 mg/kg/injection, schedule: Q01DX005 (ip), vehicle: Klucel (hydroxypropylcellulose) (HPC) 105 % of control | dose: 100.0 mg/kg/injection, schedule: Q01DX005 (ip), vehicle: Klucel (hydroxypropylcellulose) (HPC) 111 % of control | dose: 200.0 mg/kg/injection, schedule: Q01DX005 (ip), vehicle: Klucel (hydroxypropylcellulose) (HPC) 109 % of control

COc1nsc2ccc(C(C)C(N)=O)cc12 (stereo not given)
inactive: [1] 100 % of control | [2] 97 % of control | [3] 89 % of control

C[Si](C)(C)c1cnc(N)[nH]c1=O
inactive: dose: 25.0 mg/kg/injection, schedule: Q01DX009 (ip), vehicle: saline with Tween-80 115 % of control | dose: 50.0 mg/kg/injection, schedule: Q01DX009 (ip), vehicle: saline with Tween-80 120 % of control | dose: 100.0 mg/kg/injection, schedule: Q01DX009 (ip), vehicle: saline with Tween-80 120 % of control

O=C(O)CCC(=O)C(Cc1ccccc1)NC(=O)c1ccccc1 (stereo not given)
inactive: dose: 50.0 mg/kg/injection, schedule: Q01DX005 (ip), vehicle: saline with Tween-80 94 % of control | [1] 91 % of control | dose: 100.0 mg/kg/injection, schedule: Q01DX005 (ip), vehicle: saline with Tween-80 89 % of control | [2] 100 % of control | dose: 200.0 mg/kg/injection, schedule: Q01DX005 (ip), vehicle: saline with Tween-80 100 % of control | [3] 98 % of control

O=C(O)C1C(C(=O)O)C1c1ncnc2nc[nH]c12 (stereo not given)
inactive: dose: 25.0 mg/kg/injection, schedule: Q04DX003 (ip), vehicle: saline 99 % of control and 100 % of control | dose: 50.0 mg/kg/injection, schedule: Q04DX003 (ip), vehicle: saline 100 % of control and 101 % of control | dose: 100.0 mg/kg/injection, schedule: Q04DX003 (ip), vehicle: saline 98 % of control and 103 % of control and 100 % of control | dose: 200.0 mg/kg/injection, schedule: Q04DX003 (ip), vehicle: saline 103 % of control and 104 % of control | dose: 400.0 mg/kg/injection, schedule: Q04DX003 (ip), vehicle: saline 100 % of control and 99 % of control
